According to ChEMBL document CHEMBL1201862, “PubChem BioAssay data set” (2004):
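In this assay, cells in 96-well plates receive the compound at five concentrations for 48 hours. Endpoints are linearly interpolated between the surrounding concentrations. Here, GI50 denotes the concentration required for 50% inhibition of growth.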 Activity calls are given as the source filed them. No stated cut-off is given here; in the data, active = GI50 up to about 1.1 µM and inactive = higher.

What was measured:
Assay in all cases: DTP human tumour cell line panel, 48 h
A498 = test system: A498
CAKI-1 = test system: CAKI-1
DU-145 = test system: DU-145
EKVX = test system: EKVX
HL-60 = test system: HL-60
HT-29 = test system: HT-29
Hs-578T = test system: Hs-578T
IGROV-1 = test system: IGROV-1
KM12 = test system: KM12
M14 = test system: M14
NCI-H226 = test system: NCI-H226
RXF 393 = test system: RXF 393
SF-268 = test system: SF-268
SF-539 = test system: SF-539
SK-MEL-2 = test system: SK-MEL-2
SK-MEL-5 = test system: SK-MEL-5
SK-OV-3 = test system: SK-OV-3
TK-10 = test system: TK-10
UACC-257 = test system: UACC-257
MOLT-4 = test system: MOLT-4

SMILES	GI50 (A498)	GI50 (CAKI-1)	GI50 (DU-145)	GI50 (EKVX)	GI50 (HL-60)	GI50 (HT-29)	GI50 (Hs-578T)	GI50 (IGROV-1)	GI50 (KM12)	GI50 (M14)	GI50 (NCI-H226)	GI50 (RXF 393)	GI50 (SF-268)	GI50 (SF-539)	GI50 (SK-MEL-2)	GI50 (SK-MEL-5)	GI50 (SK-OV-3)	GI50 (TK-10)	GI50 (UACC-257)	GI50 (MOLT-4)
Cc1cn2c(/C=N/NC(=N)N)c(-c3ccc(Cl)c([N+](=O)[O-])c3)nc2s1	0.07 µM (active)	3.36 µM (inactive)	1.79 µM (inactive)	0.776 µM (active)	0.116 µM (active)	0.55 µM (active)	0.973 µM (active)	1.03 µM (active)	0.387 µM (active)	1.63 µM (inactive)	1.89 µM (inactive)	0.59 µM (active)	1.23 µM (inactive)	1.73 µM (inactive)	0.647 µM (active)	1.56 µM (inactive)	1.76 µM (inactive)	1.68 µM (inactive)	0.178 µM (active)	–
O=C(CC(=O)Nc1ccccc1Cl)NNC(c1cc(/N=N/c2ccc(Br)cc2)ccc1O)P(O)O (stereo unspecified)	2.27 µM (inactive)	1.36 µM (inactive)	2.42 µM (inactive)	4.22 µM (inactive)	0.323 µM (active)	> 10 µM (inactive)	> 10 µM (inactive)	6.9 µM (inactive)	2.95 µM (inactive)	0.61 µM (active)	1.22 µM (inactive)	1.34 µM (inactive)	0.679 µM (active)	0.951 µM (active)	> 10 µM (inactive)	1.19 µM (inactive)	3.03 µM (inactive)	1.61 µM (inactive)	3.2 µM (inactive)	0.338 µM (active)
COc1cc(I)c2c3c1OC1C34CCN(C)C(C2)C4=CC(I)C1(OC)OC (stereo unspecified)	32.2 µM (inactive)	22.4 µM (inactive)	18.7 µM (inactive)	29.6 µM (inactive)	17 µM (inactive)	26.5 µM (inactive)	53.2 µM (inactive)	20.1 µM (inactive)	17.5 µM (inactive)	37.4 µM (inactive)	22.6 µM (inactive)	16.3 µM (inactive)	25.6 µM (inactive)	18.1 µM (inactive)	16.4 µM (inactive)	17.1 µM (inactive)	24.8 µM (inactive)	21.3 µM (inactive)	19.3 µM (inactive)	16.2 µM (inactive)
COc1ccc(/C=C2\CC3C4CC=C5C[C@@H](O)CC[C@]5(C)C4CC[C@]3(C)C2=O)cc1OC (stereo partly specified)	28.6 µM (inactive)	29.2 µM (inactive)	27.5 µM (inactive)	28.2 µM (inactive)	13.1 µM (inactive)	31.8 µM (inactive)	36.5 µM (inactive)	75.3 µM (inactive)	32.8 µM (inactive)	65 µM (inactive)	29.4 µM (inactive)	34 µM (inactive)	64.7 µM (inactive)	57.8 µM (inactive)	24.2 µM (inactive)	7.05 µM (inactive)	41.6 µM (inactive)	32.3 µM (inactive)	13 µM (inactive)	20 µM (inactive)
S=C1/C(=N/c2ccccc2)N(C2CCCCC2)/C(=N\C2CCCCC2)N1c1ccccc1	> 100 µM (inactive)	> 100 µM (inactive)	> 100 µM (inactive)	> 100 µM (inactive)	> 100 µM (inactive)	78.5 µM (inactive)	> 100 µM (inactive)	87.5 µM (inactive)	42.7 µM (inactive)	–	> 100 µM (inactive)	> 100 µM (inactive)	> 100 µM (inactive)	1.18 µM (inactive)	> 100 µM (inactive)	> 100 µM (inactive)	> 100 µM (inactive)	> 100 µM (inactive)	> 100 µM (inactive)	> 100 µM (inactive)
O=P1(N(CCCl)CCCl)Oc2ccc(Cl)cc2C(C(Cl)(Cl)Cl)c2cc(Cl)ccc2O1 (stereo unspecified)	24.9 µM (inactive)	16.5 µM (inactive)	29.1 µM (inactive)	18.6 µM (inactive)	4.26 µM (inactive)	5.48 µM (inactive)	13.6 µM (inactive)	–	13.1 µM (inactive)	18.8 µM (inactive)	17.8 µM (inactive)	12.7 µM (inactive)	28.2 µM (inactive)	14.8 µM (inactive)	18.5 µM (inactive)	11.4 µM (inactive)	22.5 µM (inactive)	26.2 µM (inactive)	18 µM (inactive)	3.24 µM (inactive)
Cc1ccc(S(=O)(=O)NC(=O)C2=C(c3ccccc3)[N-]N(C)c3nc4cccc[n+]4nc32)cc1	> 100 µM (inactive)	> 100 µM (inactive)	> 100 µM (inactive)	29.1 µM (inactive)	> 100 µM (inactive)	> 100 µM (inactive)	> 100 µM (inactive)	51.4 µM (inactive)	> 100 µM (inactive)	> 100 µM (inactive)	> 100 µM (inactive)	> 100 µM (inactive)	> 100 µM (inactive)	> 100 µM (inactive)	> 100 µM (inactive)	98.9 µM (inactive)	–	> 100 µM (inactive)	66.4 µM (inactive)	99.5 µM (inactive)
